The target in test [1] is APC (Homo sapiens, UniProt P04070). As to the kind of experiment: Kinetic analysis of APC inhibition (Morrison tight binding equation). Type of test: biochemical. Also noted: purchased Haematologic Technologies. On the procedure: Initial velocities of APC (20 nM) were measured in the presence of increasing concentrations of DrKIn-I (0-80 nM) using different concentrations of Spectrozyme PCa (●, 0.4 mM; ▪, 0.2 mM; ▴, 0.1 mM; ▾, 0.05 mM; ♦, 0.025 mM) as substrate.
APC was incubated with heparin and increasing concentrations of DrKIn-I for 3 minutes. The initial reaction velocities (mOD405 nm/min) were then determined at 37° C. after the addition of varying concentrations of Spectrozyme PCa. The final concentrations were as follows: APC (20 nM), heparin (0.1 U/ml), DrKIn-I (0-80 nM) and Spectrozyme PCa (0.025-0.4 mM). Initial velocities were plotted against inhibitor concentrations for each substrate concentration tested and the plots were subjected to nonlinear least squares regression using GraphPad Prism software. The inhibition constant (Ki) of DrKIn-I was determined by global fitting to Morrison's tight binding equation as shown below, Vs=(Vo/2Et){[Ki′+It−Et)^2+4Ki′Et]^1/2−(Ki′+It−Et) (Eq. 1) where Vs is the steady state velocity in the presence of inhibitor, while Vo is the velocity in the absence of inhibitor. It is the total inhibitor concentration and Et is the total enzyme concentration. Ki′ is the apparent inhibition constant. […] (vii) Selectivity Profile of DrKIn-I

The subject of test [2] is plasmin. Kind of test: Euglobulin clot lysis assay. It is filed as biochemical.
In test [3] the target is T1, FXIa (Homo sapiens, UniProt P03951).
T1 construct: factor XIa (FXIa); purchased Haematologic Technologies
As to the kind of experiment: Selectivity profile and Ki, amidolytic activity of FXIa. Type of test: biochemical. On the procedure: (§1) In each of these experiments, the molar ratio of protease active site to inhibitor was 1:1. The final concentrations of these proteases and their respective substrates were as follows: FXIIa (20 nM)/S-2302 (0.2 mM), FXIa (2.5 nM)/S-2366 (0.2 mM), FXa (10 nM)/S-2222 (1.3 mM), FIXa (200 nM)/Spectrozyme FIXa (1.3 mM), FVIIa (100 nM)/S-2288 (1.3 mM), thrombin (5 nM)/T-1637 (0.2 mM), kallikrein (5 nM)/S-2302 (0.2 mM), plasmin (20 nM)/S-2251 (0.2 mM), tPA (80 nM)/Spectrozyme tPA (0.2 mM), uPA (100 nM)/S-2288 (1.3 mM), APC (10 nM)/Spectrozyme PCa (0.2 mM) and trypsin (5 nM)/S-2222 (0.2 mM). Results shown are means±SD of at least three experiments.
(§2) DrKIn-I, with or without heparin, was screened for its inhibitory activity against trypsin and also against serine proteases in the coagulation cascade (FXIIa, FXIa, FXa, FIXa, FVIIa, thrombin and kallikrein) and in the fibrinolytic system (plasmin, tPA and uPA). The amidolytic activities of these proteases were determined in the presence or absence of equimolar concentrations of DrKIn-I using their respective chromogenic substrates.

In test [4] the target is protein C zymogen (PC) (Homo sapiens, UniProt P04070). Kind of test: Surface plasmon resonance, immobilized protein C zymogen. Type of test: binding. Conditions: DrKIn-I 31.25, 62.5, 125 nM. On the procedure:
(§3) A: 70 μg of DrKIn-I in 0.1 ml equilibrating buffer (20 mM Tris-HCl, pH 8.0) was applied to a 5 ml HiTrap Heparin column and eluted with a 50 ml gradient from 0.0-1.0 M NaCl. The salt concentration corresponding to the elution peak was determined to be 0.95 M. B, Binding of DrKIn-I (0.78, 1.56, 2.34, 3.13, 4.68 and 6.25 nM) to immobilized APC was assessed in buffer containing 10 mM HEPES, 0.15 M NaCl, 3 mM EDTA and 0.05% P20 at a flow rate of 60 μl/min at 25° C. […] The thin lines represent the global fit to the response data. […] Results shown are means±SD of three experiments. Representative binding traces are shown.
Biacore T200 (GE Healthcare) was used for analysis. APC or PC dissolved in 10 mM acetate buffer (pH 5.0) was immobilized on a CM5 sensor chip to a response unit (RU) of 1000 with an amine coupling kit. Associations and dissociations of DrKIn-I were performed in 10 mM HEPES (N-2-hydroxyethylpiperazine-N′-2-ethanesulfonic acid; pH 7.4), 150 mM NaCl, 3 mM EDTA (ethylenediaminetetraacetic acid) and 0.05% P20 with a flow rate of 60 μl/min. The sensor surface was regenerated with 90 μl of 2 M MgCl2 and the signals obtained were subtracted by that obtained from the reference channel that had not been coated with ligands. Binding kinetics were determined by global fitting to 1:1 Langmuir binding model using the Biaevaluation software (GE Healthcare).

For test [5], the system named is trypsin. As to the kind of experiment: Selectivity profile, amidolytic activity of trypsin. It is filed as biochemical. Conditions: equimolar DrKIn-I and enzyme active site, trypsin 5 nM. On the procedure:
as §1, §2

Test [6] in a line: Heparin binding assay (HiTrap Heparin column, NaCl gradient). Conditions: 0.0-1.0 M NaCl gradient, 20 mM Tris-HCl pH 8.0. How it is done: as §3
In test [7] the test system is APC in normal plasma. Kind of test: APTT-based APC resistance assay in normal plasma. Type of test: biochemical. The conditions noted are these: 200 nM DrKIn-I, 40 nM APC, 2 μg/ml heparan sulfate. On the procedure: (§4) APTT-based clotting times were measured in normal, FVIII-deficient and FIX-deficient plasma containing 2 μg/ml heparan sulfate in the presence or absence of 40 nM APC and the indicated concentrations of DrKIn-I. Results shown are means±S.D. of at least three experiments.
(§5) 50 μl of normal plasma, FVIII-deficient plasma or FIX-deficient plasma supplemented with 2 μg/ml heparan sulfate (four disaccharide units long) was exposed to APC (40 nM) and varying concentrations of DrKIn-I (50-200 nM). 50 μl of activated partial thromboplastin (APTT) reagent (HYPHEN Biomed) was added and incubated for 1 minute at 37° C. Finally, clotting was initiated by adding 50 μl of 20 mM CaCl2. Coagulation times, which reflect the activities of APC, were recorded on a coagulometer (Hemostasis Analyzer KC-1; Sigma Diagnostics).

Test [8] has as its system APC in FVIII-deficient plasma. As to the kind of experiment: APTT-based APC resistance assay in FVIII-deficient plasma. Type of test: biochemical. Conditions: 200 nM DrKIn-I, 40 nM APC, 2 μg/ml heparan sulfate. On the procedure:
as §4, §5

Values joined by “and” are separate entries in the source; they are usually repeats but may differ in a detail not shown here. Identical values can stand only once.

T1 sequence (P03951 388-625 limits assumed): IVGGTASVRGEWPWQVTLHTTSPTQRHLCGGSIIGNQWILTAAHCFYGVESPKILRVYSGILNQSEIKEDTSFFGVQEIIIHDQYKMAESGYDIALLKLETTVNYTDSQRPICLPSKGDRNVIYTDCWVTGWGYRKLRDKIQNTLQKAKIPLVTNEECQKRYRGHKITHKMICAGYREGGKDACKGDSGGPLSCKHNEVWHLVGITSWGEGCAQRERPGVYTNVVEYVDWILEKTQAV
T1 sequence (P03951 19-387 limits assumed): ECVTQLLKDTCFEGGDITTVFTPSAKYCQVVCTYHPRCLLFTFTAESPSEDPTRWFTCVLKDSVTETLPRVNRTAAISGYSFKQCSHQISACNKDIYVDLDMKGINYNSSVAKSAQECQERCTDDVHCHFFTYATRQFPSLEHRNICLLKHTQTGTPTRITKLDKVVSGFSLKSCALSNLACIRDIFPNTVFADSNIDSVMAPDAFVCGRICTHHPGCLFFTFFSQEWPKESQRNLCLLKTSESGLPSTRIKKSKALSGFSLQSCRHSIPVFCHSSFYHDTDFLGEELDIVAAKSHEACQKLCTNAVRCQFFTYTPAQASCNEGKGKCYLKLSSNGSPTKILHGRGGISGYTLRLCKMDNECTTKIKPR

In the case of DrKIn-I (CGGNDNNFETRKKCRQTCGAPRKGRPT), the Ki in test [1] (0.1 U/ml heparin, APC 20 nM, read-out: inhibition constant (Ki)) was 0.053 nM and ~0.053 nM and ~0.05 nM; in test [3] (in the presence of heparin, read-out: Ki for FXIa inhibition), 1.33 ± 0.08 nM. The “ratio of Ki for FXIa and plasmin to Ki for APC” value in test [1] (in the presence of heparin) is recorded as “at least 25 fold”. Moreover, the “prolongation of euglobulin clot lysis time” value in test [2] (20 nM inhibitor) was “failed to prolong the clot lysis time”; in test [2] (100 nM inhibitor) it was “approximately an hour”. Besides, the “inhibition of FXIa” value in test [3] (equimolar DrKIn-I and enzyme active site, FXIa 2.5 nM) was approximately 40%. In addition, the “binding to immobilized protein C zymogen” value in test [4] is recorded as “No binding was observed”. The same substance showed an inhibition of trypsin in test [5] of approximately 45%. Moreover, the “NaCl concentration at elution from heparin column” value in test [6] stood at 0.95 M. The clotting time result in test [7] and in test [8] was “almost completely restored the clotting time to that observed in the absence of APC” each time.

Source of the values: patent publication US9206246B2, “Heparin/heparan sulfate-dependent inhibitors of activated protein C and uses thereof in treating hemophilic disorders” (Academia Sinica, priority 2012, dated 2015).
